From ChEMBL document CHEMBL1201862, “PubChem BioAssay data set” (2004) come the findings set out here.

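48-hour exposure; five concentrations; linearly interpolated endpoints. The concentration for 50% growth inhibition is given as GI50.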 The source made the active and inactive calls. Cut-off read from the data, not from the text of the source: active = GI50 up to about 1.1 µM and inactive = higher. Where only a bound is given, the exact number is not on record here.

What all share (assay): DTP human tumour cell line panel, 48 h
For experiment [1], the system named is 786-0.
Experiment [2] deals with CAKI-1.
Experiment [3] deals with COLO 205.
Experiment [4] has as its system HCT-15.
Experiment [5] has as its system IGROV-1.
Experiment [6] deals with K562.
The test system of experiment [7] is M14.
Experiment [8] concerns M19-MEL.
The test system of experiment [9] is NCI-H226.
For experiment [10], the system named is RPMI-8226.
The subject of experiment [11] is SF-268.
In experiment [12] the test system is SK-OV-3.
The test system of experiment [13] is UACC-257.
Experiment [14] has as its system BT-549.
Experiment [15] deals with DU-145.
Experiment [16] concerns Hs-578T.
Experiment [17] deals with MDA-MB-231.
The test system of experiment [18] is MDA-MB-435.
Experiment [19] deals with NCI/ADR-RES.
The test system of experiment [20] is RXF 393.

As to `N#Cc1nc(Nc2ccc([N+](=O)[O-])cc2)sc1N`, the GI50 in experiment [1] is 21.2 µM (inactive); in [2] it was 11.9 µM (inactive); in experiment [3] it was 14 µM (inactive); in experiment [4], 12.5 µM; in experiment [5] it was 23.4 µM (inactive); in [6], 8.75 µM (inactive). For the same molecule, the GI50 in experiment [7] is 22 µM (inactive); in experiment [8] it was 25.2 µM (inactive); in [9] it was 27.4 µM (inactive); in experiment [10] it was 3.45 µM (inactive); in experiment [11], 11.8 µM (inactive); in [12], 26.9 µM (inactive). Besides, the GI50 in experiment [13] is 18.6 µM (inactive).
As to `O=[N+]([O-])/C(Cl)=C/C(=C1/Nc2ccccc2O1)[N+](=O)[O-]`, the GI50 is 31.8 µM (inactive) in experiment [1]; 16.3 µM (inactive) in [14]; 21.4 µM (inactive) in [2]; 21.2 µM (inactive) in experiment [3]; 19.2 µM (inactive) in experiment [15]; 16.6 µM in experiment [4]. The GI50 was 27.2 µM (inactive) in experiment [16]; 33.1 µM (inactive) in experiment [5]; 32.7 µM (inactive) in experiment [6]; 19.8 µM (inactive) in [7]; 30.1 µM (inactive) in experiment [17]; 15.9 µM (inactive) in experiment [18]. The GI50 is 27.4 µM (inactive) in [9]; 24.3 µM (inactive) in experiment [19]; 28.5 µM (inactive) in [10]; 18.1 µM (inactive) in experiment [20]; 16.3 µM (inactive) in experiment [11]; 24 µM (inactive) in [12]. The GI50 in experiment [13] was 5.79 µM (inactive).
As to `CC(=O)c1cc2c(s1)C(=O)c1sccc1C2=O`, the GI50 in [1] is 0.195 µM (active); in experiment [14], 0.0184 µM (active); in experiment [2], 0.212 µM (active); in experiment [3], 1.31 µM (inactive); in experiment [15], 0.0553 µM (active); in [4], 0.0214 µM. For the same molecule, the GI50 is 0.0365 µM (active) in experiment [16]; 0.168 µM (active) in experiment [5]; 0.018 µM (active) in [6]; 0.0274 µM (active) in experiment [7]; 0.0346 µM (active) in [17]; < 0.01 µM (active) in experiment [18]. For the same molecule, the 50% growth inhibitory concentration (GI50) in experiment [9] was 0.198 µM (active); in experiment [19], 0.056 µM (active); in experiment [10], 0.0392 µM (active); in experiment [20], 0.0254 µM (active); in experiment [11] it was 0.0267 µM (active); in experiment [12], 1.73 µM (inactive). Moreover, in [13], the GI50 is 0.0146 µM (active).
As for `C=C1C(=O)OC2C/C(C)=C/CC/C(C)=C/CCC3(COC(C)=O)OC3CC12` (stereo not drawn), the GI50 in experiment [1] is 5.65 µM (inactive); in experiment [2], 3.31 µM (inactive); in experiment [3], 4.55 µM (inactive); in [4], 2.81 µM; in experiment [5] it was 16.7 µM (inactive); in experiment [6], 5.68 µM (inactive). The GI50 in experiment [7] was 6.15 µM (inactive); in [8], 13.1 µM (inactive); in experiment [10], 2.53 µM (inactive); in experiment [20], 2.51 µM (inactive); in experiment [11], 10 µM (inactive); in experiment [12] it was 13.7 µM (inactive). Besides, the GI50 in [13] is 15.4 µM (inactive).
With `Nc1c(S(=O)(=O)O)cc(Nc2cccc(S(N)(=O)=O)c2)c2c1C(=O)c1ccccc1C2=O`, the GI50 is 62.5 µM (inactive) in [1]; > 100 µM (inactive) in experiment [14]; > 100 µM (inactive) in experiment [2]; 38.1 µM (inactive) in experiment [3]; > 100 µM (inactive) in experiment [15]; 84.5 µM in experiment [4]. Further, the GI50 in experiment [16] was 29 µM (inactive); in experiment [5], > 100 µM (inactive); in experiment [6], > 100 µM (inactive); in [7], 50.6 µM (inactive); in experiment [17] it was > 100 µM (inactive); in experiment [18], 17.7 µM (inactive). Also, the GI50 is > 100 µM (inactive) in experiment [9]; > 100 µM (inactive) in experiment [19]; > 100 µM (inactive) in experiment [10]; 74.3 µM (inactive) in experiment [20]; > 100 µM (inactive) in experiment [11]; 27.5 µM (inactive) in experiment [12]. For the same molecule, the GI50 in [13] is 54.2 µM (inactive).
With `CN(Cc1cnc2nc(N)nc(N)c2n1)c1ccc(C(=O)NCCCC(=O)O)cc1`, the GI50 in [1] is 12.5 µM (inactive); in [14], > 65 µM (inactive); in experiment [2], > 27.5 µM (inactive); in experiment [3], > 100 µM (inactive); in experiment [15], 8.49 µM (inactive); in [4], 6.01 µM. For the same molecule, the GI50 in experiment [16] is > 92.3 µM (inactive); in experiment [5], 16.1 µM (inactive); in [6], 1.2 µM (inactive); in experiment [7], 7.55 µM (inactive); in experiment [17], > 100 µM (inactive); in experiment [18], > 25.4 µM (inactive). Also, the GI50 in [9] was > 37.5 µM (inactive); in experiment [19], > 31.4 µM (inactive); in experiment [10] it was > 40 µM (inactive); in experiment [20], > 100 µM (inactive); in experiment [11] it was 29.9 µM (inactive); in experiment [12], 97.9 µM (inactive). Also, in [13], the GI50 is 98.9 µM (inactive).
Regarding `C/C(=N/NC(N)=S)c1ccc[nH]1`, the GI50 in experiment [1] is > 100 µM (inactive); in experiment [14], > 100 µM (inactive); in experiment [2], > 100 µM (inactive); in [3], > 100 µM (inactive); in experiment [15], > 100 µM (inactive); in experiment [4], above 100 µM. Besides, the GI50 in experiment [16] is > 100 µM (inactive); in experiment [5] it was > 100 µM (inactive); in experiment [6], 37.9 µM (inactive); in [7], > 100 µM (inactive); in experiment [17], > 100 µM (inactive); in experiment [18], > 100 µM (inactive). Moreover, the GI50 in [9], in experiment [19], in [10], in [20], in [11] and in experiment [12] was > 100 µM (inactive) in each case. In addition, the GI50 in experiment [13] was > 100 µM (inactive).
Take `O=C(/C=C/c1ccc(O)cc1)c1cc(O)cc(O)c1`: the GI50 in experiment [1] was 16.6 µM (inactive); in experiment [14], 14.3 µM (inactive); in experiment [2] it was 14.4 µM (inactive); in experiment [3], 18 µM (inactive); in experiment [15], 12.7 µM (inactive); in [4], 5.4 µM. Also, the GI50 is 29.9 µM (inactive) in experiment [16]; 13.7 µM (inactive) in [5]; 2.68 µM (inactive) in experiment [6]; 15.7 µM (inactive) in experiment [7]; 15.5 µM (inactive) in [17]; 14.2 µM (inactive) in [18]. Moreover, the GI50 is 24.1 µM (inactive) in [9]; 18.9 µM (inactive) in [19]; 2.16 µM (inactive) in experiment [10]; 15.8 µM (inactive) in experiment [20]; 19.8 µM (inactive) in experiment [11]; 18.2 µM (inactive) in experiment [12]. For the same molecule, the GI50 in [13] is 16.3 µM (inactive).
Consider `NCCNC(=S)S`, for which the GI50 in experiment [1] was 33.8 µM (inactive); in experiment [14], > 100 µM (inactive); in experiment [2], > 100 µM (inactive); in [3] it was > 100 µM (inactive); in experiment [15], > 100 µM (inactive); in experiment [4], 58.2 µM. The GI50 is 7.31 µM (inactive) in experiment [16]; > 100 µM (inactive) in [5]; 36.6 µM (inactive) in [6]; > 100 µM (inactive) in experiment [7]; > 100 µM (inactive) in experiment [17]; > 100 µM (inactive) in experiment [18]. Further, the GI50 in experiment [9] is > 100 µM (inactive); in experiment [19] it was > 100 µM (inactive); in experiment [10] it was 24.9 µM (inactive); in [20] it was > 100 µM (inactive); in experiment [11] it was 4.9 µM (inactive); in experiment [12], > 100 µM (inactive). The GI50 in [13] is > 100 µM (inactive).
Consider `c1ccc2c(c1)cc1c3[nH]c4ccccc4c3ccn21`, for which the GI50 in [1] is > 10 µM (inactive); in [14], > 10 µM (inactive); in experiment [2], > 10 µM (inactive); in experiment [3], 1.61 µM (inactive); in [15] it was > 10 µM (inactive); in experiment [4], above 10 µM. In addition, the GI50 in experiment [16], in experiment [5], in [6], in [7], in [17] and in experiment [18] was > 10 µM (inactive) in each case. In addition, the GI50 in [9] was > 10 µM (inactive); in [19] it was > 10 µM (inactive); in experiment [10], 4.59 µM (inactive); in [20], > 10 µM (inactive); in [11] it was > 10 µM (inactive); in experiment [12], > 10 µM (inactive). The GI50 in [13] is > 10 µM (inactive).
For the molecule `CCCc1ccc(OCC(=O)N/N=C/c2c(-c3ccccc3)[nH]c3ccccc23)cc1`, the GI50 in experiment [1] was 14.1 µM (inactive); in [14], 13.8 µM (inactive); in experiment [2] it was 21.1 µM (inactive); in [3], 3.43 µM (inactive); in [15], 21.5 µM (inactive); in experiment [4], 4.99 µM. The GI50 in [16] was 28.4 µM (inactive); in [5] it was 13.1 µM (inactive); in experiment [6], 3.99 µM (inactive); in experiment [7], 11.5 µM (inactive); in [17], 7.06 µM (inactive); in [18] it was 2.77 µM (inactive). The GI50 in [9] is 17.3 µM (inactive); in [19], 6.81 µM (inactive); in experiment [10], 5.48 µM (inactive); in experiment [20] it was 11.1 µM (inactive); in experiment [11], 27.7 µM (inactive); in [12] it was 27.2 µM (inactive). In addition, in experiment [13], the GI50 was 15.4 µM (inactive).
For `CC(C)N(C(=O)C12C3C4C1C1C2C3C41C(=O)C(C)(C)C)C(C)C` (stereo not drawn), the GI50 was > 100 µM (inactive) in experiment [1]; > 100 µM (inactive) in experiment [2]; > 100 µM (inactive) in experiment [3]; > 100 µM (inactive) in experiment [5]; 20.8 µM (inactive) in experiment [6]; > 100 µM (inactive) in [7]. The GI50 in [8] was > 100 µM (inactive); in experiment [10], 31.9 µM (inactive); in experiment [11], > 100 µM (inactive); in experiment [12] it was > 100 µM (inactive); in [13] it was 95.3 µM (inactive).
